According to patent US20050282743A1, “Molecular interactions in cells” (Arbor Vita Corporation, priority 2001, published 2005):
Counter-ions that a name gives are not always drawn.

Assays:
Atr-P (1/6) : DNAM (22L) = target: T1, Atr-P (1/6) : DNAM (22L) (Homo sapiens, UniProt Q86UL8); test: G assay with FDA approved drug (Example 7, TABLE 10B); assay type: binding; settings: OD in absence of drug 4; drug concentration per TABLE 11; read after 30 minutes
T1 construct: made in house; host or cells: E. coli (DH5α, BL21 or JM109)
T1 sequence (Q86UL8 408-511): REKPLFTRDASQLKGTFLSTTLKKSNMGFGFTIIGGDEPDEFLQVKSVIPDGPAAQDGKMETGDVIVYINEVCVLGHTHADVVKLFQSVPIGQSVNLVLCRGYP
Method: (§1) For certain of the PDZ proteins and PL proteins shown to bind together and for which Kd values had been obtained, additional testing was conducted to determine whether certain pharmaceutical compounds would act to antagonize or agonize the interactions. Assays were conducted as for the G′ assay described supra both in the presence and absence of test compound, except that 50 ul of a 10 uM solution of the biotinylated PL peptide is allowed to react with the surface bearing the PDZ-domain polypeptide instead of a 20 uM solution as specified in step (2) of the assay.
(§2) In both tables, the first column (left to right) entitled “PDZ domain” lists the gene name of GST-PDZ domain fusion (see TABLE 9). Entries having two numbers separated by a slash indicate which PDZ domain was utilized. For example, in TABLE 10A, the entry for ZO-3 is 1/3. This means that PDZ domain 1 of 3 was used.
(§3) The second column labeled “PL” indicates the name of the PDZ ligand (see TABLES 10A and 10B) interacting with the PDZ domain. The third column entitled “Drug” lists the common or trade name of pharmaceutical compound tested and found to modulate the specific PDZ-PL interaction (suppliers and chemical information are listed in TABLE 11). The final column with the heading “Change in OD” indicates the change in absorbance at 450 nm of the assay in the absence (first number) or presence (second number) of chemical compound.
(§4) Many FDA approved drugs have unknown mechanism of function. It is quite possible that some of these drugs function by disrupting or increasing PDZ/PL interactions. This possibility was examined by using the ‘G Assay’ (Example 3 section D). FDA approved drugs were incubated in the presence of the labeled peptide and compared to the same interaction without drug to determine if there was an effect on specific PDZ:PL interactions (drugs added with peptide at step 9 in Example 3D). The primary focus of this experiment was on drugs involved in treatment of depression (amitriptyline, desipramine, trimipramine, benztropine, and nortryptilline) and epilepsy (valproic acid). No modes of action are known for these drugs.
(§5) Therapeutic dose was determined by guidelines given in the Physician's Desk Reference and in the assay, 200 times this amount was used. If a dosage range was given, the upper end of the range was used. Each interaction listed in TABLES 10A & B was tested in the ‘G Assay’ (see Example 3) against each of the drugs listed in TABLE 11. The concentration of GST-fusion protein and peptide used in the assay represent the Kd and were determined by titration. These values can be found in TABLE 7. The drugs were added to the peptide before addition to the well containing the PDZ protein. Otherwise, the assay was carried out as described and read at 450 nm after 30 minutes of developing. For the sequences of the PDZs and PLs used in these tests, see TABLES 8 & 9.
(§6) List of interactions and therapeutics for which a modulation of binding was observed. Concentrations at which the GST-PDZ fusion protein and labeled peptide were used can be found in Table 7 or Table 12.

ZO-2 (1/3) : DNAM (22L) = target: T2, ZO-2 (1/3) : DNAM (22L) (Homo sapiens, UniProt Q9UDY2); test: as above; assay type: binding
T2 construct: made in house; host or cells: E. coli (DH5α, BL21 or JM109)
T2 sequence (Q9UDY2 27-122): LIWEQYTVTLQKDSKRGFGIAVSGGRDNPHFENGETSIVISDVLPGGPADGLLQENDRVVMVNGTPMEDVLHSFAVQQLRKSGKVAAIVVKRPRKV
Method: as §1, §2, §3, §4, §5, §6

BAI-1 (2/6) : DNAM (22L) = target: T3, BAI-1 (2/6) : DNAM (22L) (Homo sapiens, UniProt Q96QZ7); test: as above; assay type: binding; settings: OD in absence of drug 4; drug concentration per TABLE 11; read after 30 minutes
T3 construct: made in house; host or cells: E. coli (DH5α, BL21 or JM109)
T3 sequence (Q96QZ7 463-566): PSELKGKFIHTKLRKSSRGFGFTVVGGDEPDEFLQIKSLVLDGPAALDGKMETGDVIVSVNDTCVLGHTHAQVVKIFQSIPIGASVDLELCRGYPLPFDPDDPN
Method: as §1, §2, §3, §4, §5, §6

[1] = system: hSyntenin : Presenilin (115L); test: G assay with FDA approved drug (Example 7, TABLE 10A); assay type: binding; settings: OD in absence of drug 1.1; drug concentration per TABLE 11; read after 30 minutes
Method: as §1, §2, §3, §4, §5, §6

[2] = target: T4, ZO-3 1/3 : Presenilin (115L) (Homo sapiens, UniProt O95049); test: as above; assay type: binding; settings: OD in absence of drug 1.2; drug concentration per TABLE 11; read after 30 minutes
T4 construct: the entry for ZO-3 is 1/3; This means that PDZ domain 1 of 3 was used; made in house; host or cells: E. coli (DH5alpha, BL21 or JM109)
T4 sequence (O95049 with tags, fused parts or gaps): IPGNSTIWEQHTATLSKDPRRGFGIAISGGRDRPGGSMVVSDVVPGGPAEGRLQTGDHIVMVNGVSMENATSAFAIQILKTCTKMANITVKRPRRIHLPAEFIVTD
Method: as §1, §2, §3, §4, §5, §6

[3] = target: T5, FLJ10324 : Presenilin 2 (117L) (Homo sapiens, UniProt Q96JH8); test: as above; assay type: binding; settings: OD in absence of drug 0.4; drug concentration per TABLE 11; read after 30 minutes
T5 construct: made in house; host or cells: E. coli (DH5alpha, BL21 or JM109)
T5 sequence (Q96JH8 976-1061 limits assumed): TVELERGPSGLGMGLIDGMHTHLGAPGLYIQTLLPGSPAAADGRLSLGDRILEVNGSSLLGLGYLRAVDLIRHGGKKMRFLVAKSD
Method: as §1, §2, §3, §4, §5, §6

[4] = target: T6, Par 3 3/3 : Presenilin 2 (117L) (Homo sapiens, UniProt Q8TEW0); test: G assay with FDA approved drug (Example 7, TABLES 10A, 10B); assay type: binding; settings: OD in absence of drug 0.6; drug concentration per TABLE 11; read after 30 minutes
T6 construct: made in house; host or cells: E. coli (DH5alpha, BL21 or JM109)
T6 sequence (Q8TEW0 579-681): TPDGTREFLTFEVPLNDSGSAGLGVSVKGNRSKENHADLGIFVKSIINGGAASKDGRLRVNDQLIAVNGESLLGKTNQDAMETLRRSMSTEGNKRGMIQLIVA
Method: as §1, §2, §3, §4
as §5, with “For the sequences of the PDZs and PLs used in these tests, see TABLES 8 & 9.” left out

[5] = target: T7, Mupp-1 7/13 : Presenilin 2 (117L) (Homo sapiens, UniProt O75970); test: as above; assay type: binding; settings: OD in absence of drug 0.5; drug concentration per TABLE 11; read after 30 minutes
T7 construct: Entries having two numbers separated by a slash indicate which PDZ domain was utilized; made in house; host or cells: E. coli (DH5alpha, BL21 or JM109)
T7 sequence (O75970 with tags, fused parts or gaps): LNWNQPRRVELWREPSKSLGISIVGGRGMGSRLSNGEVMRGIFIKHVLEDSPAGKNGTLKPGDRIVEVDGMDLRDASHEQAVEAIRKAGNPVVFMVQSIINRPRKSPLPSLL
Method: as §1, §2, §3, §4
as §5, with “For the sequences of the PDZs and PLs used in these tests, see TABLES 8 & 9.” left out

TIP-1 1/1 : LPAP (30L) = target: T8, TIP-1 1/1 : LPAP (30L) (Homo sapiens, UniProt O14907); test: G assay with FDA approved drug (Example 7, TABLE 10A); assay type: binding; settings: OD in absence of drug 1.1; drug concentration per TABLE 11; read after 30 minutes
T8 construct: made in house; host or cells: E. coli (DH5alpha, BL21 or JM109)
T8 sequence (O14907 14-116): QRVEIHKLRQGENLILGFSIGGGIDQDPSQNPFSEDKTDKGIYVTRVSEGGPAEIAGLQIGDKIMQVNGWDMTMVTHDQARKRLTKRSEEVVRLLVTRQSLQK
Method: as §1, §2, §3, §4, §5, §6

[6] = target: T9, PTPL-1 (4/5) : Presenilin 2 (117L) (Homo sapiens, UniProt Q12923, G1797A); test: G assay with FDA approved drug (Example 7, TABLE 10B); assay type: binding; settings: OD in absence of drug 1.4; drug concentration per TABLE 11; read after 30 minutes
T9 construct: made in house; host or cells: E. coli (DH5α, BL21 or JM109)
T9 sequence (Q12923 1782-1879 G1797A): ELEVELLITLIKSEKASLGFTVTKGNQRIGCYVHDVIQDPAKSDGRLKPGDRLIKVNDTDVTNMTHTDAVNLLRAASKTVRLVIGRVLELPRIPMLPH
Method: as §1, §2, §3, §4, §5, §6

[7] = target: T10, Hemba 1003117 : Presenilin 2 (117L) (Homo sapiens, UniProt Q96JH8); test: as above; assay type: binding; settings: OD in absence of drug 1.2; drug concentration per TABLE 11; read after 30 minutes
T10 construct: made in house; host or cells: E. coli (DH5α, BL21 or JM109)
T10 sequence (Q96JH8 969-1068): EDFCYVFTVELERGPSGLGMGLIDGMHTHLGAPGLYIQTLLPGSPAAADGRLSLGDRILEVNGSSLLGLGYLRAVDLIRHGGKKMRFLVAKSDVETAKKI
Method: as §1, §2, §3, §4, §5, §6

DVL2 : Presenilin (115L) = target: T11, DVL2 : Presenilin (115L) (Homo sapiens, UniProt O14641); test: G assay with FDA approved drug (Example 7, TABLE 10A); assay type: binding; settings: OD in absence of drug 0.3; drug concentration per TABLE 11; read after 30 minutes
T11 construct: made in house; host or cells: E. coli (DH5alpha, BL21 or JM109)
T11 sequence (O14641 with tags, fused parts or gaps): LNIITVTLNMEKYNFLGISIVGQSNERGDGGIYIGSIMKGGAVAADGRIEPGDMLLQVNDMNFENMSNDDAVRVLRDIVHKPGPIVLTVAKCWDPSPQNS
Method: as §1, §2, §3, §4, §5, §6

AF6 : Presenilin (115L) = target: T12, AF6 : Presenilin (115L) (Homo sapiens, UniProt P55196); test: as above; assay type: binding
T12 construct: made in house; host or cells: E. coli (DH5alpha, BL21 or JM109)
T12 sequence (P55196 1001-1093): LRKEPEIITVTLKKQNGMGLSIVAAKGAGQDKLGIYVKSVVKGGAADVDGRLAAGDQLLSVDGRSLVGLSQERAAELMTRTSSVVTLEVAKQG
Method: as §1, §2, §3, §4, §5, §6

[8] = system: Antigen-specific mouse T cells, BR4.2; test: T cell stimulation assay, MBPAc1-16 and antigen presenting cells, IFNγ ELISA (FIG. 1A); assay type: cell-based; settings: 10 μM Tat-peptide; compared to Tat-peptide alone or no peptide
Method: Antigen-specific T cell activation was measured by cytokine production. Fusion peptides containing tat and a T cell surface molecule carboxyl terminus inhibited γ-interferon (IFN) production by a T cell line in response to myelin basic protein (MBP) stimulation. […]
Cell Cultures Cells were maintained and tested in RPMI 1640 media supplemented with 10% fetal calf serum (HyClone), 2 mM glutamine, 10 mM Hepes, 100 U/ml penicillin, 100 μg/ml streptomycin, 0.1 mM non-essential amino acids, 1 mM sodium pyruvate, and 50 μM beta mercaptoethanol.
Supernatants were assayed for cytokine production following activation of T cell lines. […]
IFNγ was measured from cell supernatants, described above, at ambient temperature using the Endogen, Inc. ELISA protocol 3. […] The presence of IFNγ was detected with a biotin-labeled anti-mouse IFNγ monoclonal antibody (MM700B, Endogen, Inc.,). […] The absorbance at 450 nm was measured using a microtiter plate reader (Thermo Max, Molecular Devices) and the concentration of unknown IFNγ from cell supernatants was calculated from a standard curve generated by Softmax Pro software (Molecular Devices).

ZO-1 2/3 : NET (258L) = target: T13, ZO-1 2/3 : NET (258L) (Homo sapiens, UniProt Q07157, DEL264-264); test: G assay with FDA approved drug (Example 7, TABLE 10B); assay type: binding; settings: OD in absence of drug 0.8; drug concentration per TABLE 11; read after 30 minutes
T13 construct: made in house; host or cells: E. coli (DH5α, BL21 or JM109)
T13 sequence (Q07157 with tags, fused parts or gaps DEL264-264): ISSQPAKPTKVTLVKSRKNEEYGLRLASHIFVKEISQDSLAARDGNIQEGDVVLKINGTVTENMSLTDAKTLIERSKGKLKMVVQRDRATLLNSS
Method: as §1, §2, §3, §4, §5, §6

CNCCCN1c2ccccc2CCc2ccccc21 [Desipramine, DESIPRAMINE HYDROCHLORIDE]
CHANGE IN OD: absorbance at 450 nm in presence of drug (Atr-P (1/6) : DNAM (22L)): 4 to 1.5
CHANGE IN OD: absorbance at 450 nm in presence of drug (ZO-2 (1/3) : DNAM (22L); OD in absence of drug 2.1, drug concentration per TABLE 11, read after 30 minutes): 2.1 to 0.5
antagonistic effect, binding relative to absence of drug (ZO-2 (1/3) : DNAM (22L); ZO-2 domain 1 and DNAM-1): 4.2 fold
CHANGE IN OD: absorbance at 450 nm in presence of drug (BAI-1 (2/6) : DNAM (22L)): 4 to 1.8
Change in OD: absorbance at 450 nm in presence of drug [1]: 1.1 to 2.3
Change in OD: absorbance at 450 nm in presence of drug [2]: 1.2 to 3.3
Change in OD: absorbance at 450 nm in presence of drug [3]: 0.4 to 0.8
Change in OD: absorbance at 450 nm in presence of drug [4]: 0.6 to 2.1
Change in OD: absorbance at 450 nm in presence of drug [5]: 0.5 to 1.0

CN1[C@@H]2CC[C@H]1C[C@@H](OC(c1ccccc1)c1ccccc1)C2 [Benztropine, BENZTROPINE MESYLATE]
Change in OD: absorbance at 450 nm in presence of drug (TIP-1 1/1 : LPAP (30L)): 1.1 to 1.6

CCCC(CCC)C(=O)O [Valproic Acid, VALPROIC ACID]
CHANGE IN OD: absorbance at 450 nm in presence of drug [6]: 1.4 to 1.1
CHANGE IN OD: absorbance at 450 nm in presence of drug [7]: 1.2 to 0.8
Change in OD: absorbance at 450 nm in presence of drug [4]: 0.6 to 0.2
Change in OD: absorbance at 450 nm in presence of drug [5]: 0.5 to 0.2

CN(C)CCC=C1c2ccccc2CCc2ccccc21 [Amitriptyline, AMITRIPTYLINE HYDROCHLORIDE]
Change in OD: absorbance at 450 nm in presence of drug [1]: 1.1 to 2.7
Change in OD: absorbance at 450 nm in presence of drug [2]: 1.2 to 3.6
Change in OD: absorbance at 450 nm in presence of drug (DVL2 : Presenilin (115L)): 0.3 to 0.9
agonist effect, binding relative to absence of drug (AF6 : Presenilin (115L); AF6 and presenilin-1): 4.3 fold
Change in OD: absorbance at 450 nm in presence of drug (AF6 : Presenilin (115L); OD in absence of drug 0.4, drug concentration per TABLE 11, read after 30 minutes): 0.4 to 1.7

GYGRKKRRQRRRGPPSSSSGL [Tat-CD3 fusion peptide]
T cell activation mediated by peptide:MHC (IFNγ production) [8]: inhibits T cell activation

CN(C)CCCN1c2ccccc2CCc2ccccc21 [Imipramine, Imipramine HCI]
CHANGE IN OD: absorbance at 450 nm in presence of drug (ZO-1 2/3 : NET (258L)): 0.8 to 0.4
